Data as given in paper PMC11124341, “4-Hydroxybenzoic Acid-Based Hydrazide–Hydrazones as Potent Growth Inhibition Agents of Laccase-Producing Phytopathogenic Fungi That Are Useful in the Protection of Oilseed Crops” (Molecules, 2024).

Legend:
NIH3T3 cell line = system: NIH3T3 cell line; parameters: method as in PMID 23142671; settings: read-out: IC50 against NIH3T3 cell line; cited from earlier work
Candida = system: Candida; parameters: method as in PMID 23142671; settings: cited from earlier work
[1] = system: Botrytis cinerea strain FBc05; test: In vitro antifungal activity, mycelial growth inhibition on PDA medium; type: cell-based; settings: screening at basal 50 µg/mL, PDA medium, mean ± SD of three determinations
Experimental: (§1) The cultures of Botrytis cinerea strain FBc05 and Sclerotinia sclerotiorum strain FSc10 were obtained from the collection of the Division of Plant Pathology and Mycology at the Department of Plant Protection of Wroclaw University of Environmental and Life Sciences (Poland). Cerrena unicolor (Bull.ex.Fr.) Murr, strain no. 139, originated from the culture collection of the Department of Biochemistry, University of Lublin (Poland). The stock cultures were maintained on potato dextrose agar at +4 °C and periodically transferred to a fresh medium.
(§2) Prior to the fungicidal activity assay of hydrazide–hydrazones 1–35, we considered ethanol and DMSO as potential dissolution media for tested compounds. […] Furthermore, a very important aspect of biological testing is the careful selection of organic solvents. These are typically used, e.g., methanol, ethanol, acetone, and DMSO, and may be highly toxic for microorganisms in even very low concentrations, such as 1% (v/v). Ethanol and DMSO with a final concentration between 0.1 and 1.0% (v/v) in a PDA medium were used and applied to evaluate the inhibition growth of B. cinerea, S. sclerotiorum, and C. unicolor (see Supplementary Materials). The following procedure was applied to the microorganism testing. The assays of fungi inhibition growth were performed at a basal concentration of 50 µg/mL for all compounds, and detailed experiments were extended for testing between 0 and 50 µg/mL (0, 6.25, 12.5, 25.0, and 50.0 µg/mL) for selected compounds. The tests were carried out on Petri dishes (diameter 60 mm) with PDA medium containing appropriate compound, co-solvent control, and hydrazide–hydrazone dissolved in co-solvent assay. A piece of mycelium with a 5 mm edge taken from the outer edge of the growing fungi on the PDA plate with co-solvent was transferred to a central part of the PDA plate with the examined compound. The plates thus inoculated were incubated at 22 °C in the dark for a time when the control plate containing only the co-solvent was covered entirely with the tested microorganism. For B. cinerea and S. sclerotiorum, the test took 3 days, and for C. unicolor, it took 7 days. Each assay was performed at least in triplicate. […] Model parameters c and e were estimated using the nonlinear least-squares method. Parameters d and b (with two exceptions) were fixed and assumed to be equal. Based on estimated parameters, the values of IC50 were determined. […] The IC50 values were calculated only in cases when the model predicted a decrease in growth rate by more than 50%.
(§3) In vitro antifungal activity
(§4) Prior to the fungicidal activity assay of hydrazide-hydrazones 1–35, we considered ethanol (EtOH) and DMSO as potential dissolution media for tested compounds.
(§5) EtOH and DMSO with a final concentration between 0.1–1.0% (v/v) in a PDA medium were applied to evaluate the inhibition growth of B. cinerea, S. sclerotiorum, and C. unicolor (see Table S3). The following procedure was applied to the microorganism testing with the hydrazide-hydrazones. The assays of fungi inhibition growth were performed at a basal concentration of 50 µg/mL for all compounds, and detailed experiments were extended for testing selected molecules 18, 19, 27, […]
(§6) Table S2. In vitro antifungal activity for DMSO and ethanol co-solvents.

[2] = system: Cerrena unicolor strain no. 139; test: as above; type: cell-based; settings: Cerrena unicolor, NO.139; screening at basal 50 µg/mL, PDA medium, mean ± SD of three determinations; read-out: fungal growth inhibition, C. unicolor
Experimental: as §1, §2, §3, §4, §5, §6

[3] = system: Sclerotinia sclerotiorum strain FSc10; test: as above; type: cell-based; settings: screening at basal 50 µg/mL, PDA medium, mean ± SD of three determinations
Experimental: as §1, §2, §3, §4, §5, §6

[4] = biological target: laccase from Trametes versicolor; test: Laccase inhibition kinetic study; type: biochemical; settings: determined in this study for 32 (table cites [75]), SD = 5.75 (%)
Experimental: The inhibition constant for 32 was determined according to procedures and calculations reported previously using commercially available laccase from Trametes versicolor (Sigma-Aldrich).

SMILES | IC50 (NIH3T3 cell line) | MIC, anticandidal activity (Candida) | fungal growth inhibition, B. cinerea [1] | inhibition of growth at 50 µg/mL [2] | fungal growth inhibition, S. sclerotiorum [3] | Ki [4] | melting point
Cn1nnnc1SCC(=O)N/N=C/c1ccc(O)cc1 [II] | 632 µM | 0.5 to 1.0 mg/mL |  |  |  |  | 
O=C(N/N=C/c1c(O)cc(O)c(/C=N/NC(=O)c2ccc(O)cc2)c1O)c1ccc(O)cc1 [compound 32, N′,N″-[(2,4,6-trihydroxy-1,3-phenylene)di-(E)-methanylylidene]bis(4-hydroxybenzohydrazide)] |  |  | n.o. | 14.3 ± 2.7% | n.o. | 194 µM | 223 to 226 °C (dec.)
